Assay results from patent EP1268431B1 (Wyeth, priority 2000, dated 2001).
Several values for one entry are separate records, joined by “and”; a condition that tells them apart may be missing. Equal values may be shown once.

Target: T1, c-Src (Homo sapiens, UniProt P12931)
T1 construct: purchased Upstate Biotechnologies
Test: c-Src Kinase Assay (ELISA format)
Type: biochemical
Details: not given
Method: Inhibitors of Src (partially purified preparation purchased from Upstate Biotechnologies) tyrosine kinase activity are analyzed in an ELISA format. […] Horseradish Peroxidase (HRP)-conjugated anti-phosphotyrosine is used to detect phosphorylated peptide via a color reaction. Conditions recommended by the manufacturer are employed.
Reaction conditions: Five microliter aliquots of each compound prepared fresh at the time of the assay are added as a solution in 10mM HEPES pH 7.5, 10% DMSO to the reaction well. Thirty-five microliters of reaction mix containing Src, buffer and peptide/bovine serum albumin mix are added to the compound wells and incubated at 30°C for 10 minutes (reaction buffer: 50mM TrisHCl pH 7.5, 10mM MgCl2, 0.1mM EGTA, 0.5mM Na3VO4). The reaction is started by addition of 10 microliters of ATP, incubated at 30°C for 1 hour, and stopped by addition of 20 microliters of 0.5M EDTA. The reaction mixture with the phosphorylated peptide is then transferred to a streptavidin-coated microtiter plate (provided in the kit) and allowed to bind for 20 minutes. Unbound peptide and reaction mixture is decanted and the plate is washed with PBS six times. HRP-conjugated phosphotyrosine antibody supplied in the kit is incubated with the plate for one hour, then decanted. The plate is again washed with PBS six times.
Activity is determined as % inhibition as calculated by the formula: (1 - Abs/Abs(max)) x 100 = % inhibition.

| Compound | IC50 |
| --- | --- |
| 4-(2,4-Dichloro-5-methoxyanilino)-6-methoxy-7-(1H-pyrrol-1-yl)-3-quinolinecarbonitrile [Example 59] | 0.012 µM and 0.015 µM |
| N#Cc1cnc2cc(-c3csc(CN4CCOCC4)c3)ccc2c1Nc1ccc(Cl)cc1F [Example 1, 4-(4-Chloro-2-fluoroanilino)-7-[5-(4-morpholinylmethyl)-3-thienyl]-3-quinolinecarbonitrile] | 0.025 µM |
| N#Cc1cnc2cc(-c3ccc(-c4ccccn4)s3)ccc2c1Nc1ccc(Cl)cc1Cl [Example 18, 4-(2,4-Dichloroanilino)-7-[5-(2-pyridinyl)-2-thienyl]-3-quinolinecarbonitrile] | 0.18 µM |
| COc1cc(Nc2c(C#N)cnc3cc(-c4ccc(/C=C/CN5CCOCC5)s4)ccc23)c(Cl)cc1Cl [Example 21, 4-(2,4-Dichloro-5-methoxyanilino)-7-{5-[(E)-3-(4-morpholinyl)-1-propenyl]-2-thienyl}-3-quinolinecarbonitrile] | 0.04 µM and 0.009 µM |
| COc1cc(Nc2c(C#N)cnc3cc(-c4cccc(CN5CCOCC5)c4)ccc23)c(Cl)cc1Cl [Example 26, 4-(2.4-Dichloro-5-methoxyanilino)-7-[3-(4-morpholinylmethyl)phenyl]-3-quinolinecarbonitrile] | 0.024 µM |
| CCN1CCN(Cc2ccc(-c3ccc4c(Nc5cc(OC)c(Cl)cc5Cl)c(C#N)cnc4c3)cc2)CC1 [Example 30, 4-(2,4-Dichloro-5-methoxyanilino)-7-{4-[(4-ethyl-1-piperazinyl)methyl]phenyl}-3-quinolinecarbonitrile] | 0.0044 µM and 0.0015 µM |
| CCN1CCN(Cc2ccc(-c3cc4ncc(C#N)c(Nc5cc(OC)c(Cl)cc5Cl)c4cc3OC)cc2)CC1 [Example 31, 4-(2,4-Dichloro-5-methoxyanilino)-7-{4-[(4-ethyl-1-piperazinyl)methyl]phenyl}-6-methoxy-3-quinolinecarbonitrile] | 0.0083 µM and 0.0056 µM |
| COc1cc(Nc2c(C#N)cnc3cc(-c4ccc(CN5CCOCC5)c(CN5CCOCC5)c4)ccc23)c(Cl)cc1Cl [Example 34, 7-[3,4-Bis(4-morpholinylmethyl)phenyl]-4-(2,4-dichloro-5-methoxyanilino)-3-quinolinecarbonitrile] | 0.003 µM |
| COc1cc(Nc2c(C#N)cnc3cc(-c4cccc(CN5CCOCC5)c4)c(OC)cc23)c(Cl)cc1Cl [Example 39, 4-(2,4-Dichloro-5-methoxyanilino)-6-methoxy-7-[3-(4-morpholinylmethyl]phenyl}-3-quinolinecarbonitrile] | 0.22 µM |
| COc1cc(Nc2c(C#N)cnc3cc(-c4ccc(CCN5CCOCC5)cc4)c(OC)cc23)c(Cl)cc1Cl [Example 40, 4-(2,4-Dichloro-5-methoxyanilino)-6-methoxy-7-{4-[2-(4-morpholinyl)ethyl]phenyl}-3-quinolinecarbonitrile] | 0.01 µM |
| COc1cc(Nc2c(C#N)cnc3cc(-c4csc(C5OCCO5)c4)ccc23)c(Cl)cc1Cl [Example 42, 4-(2,4-Dichloro-5-methoxyanilino)-7-[5-(1,3-dioxolan-2-yl)-3-thienyl]-3-quinolinecarbonitrile] | 0.0027 µM |
| COc1cc(Nc2c(C#N)cnc3cc(-c4csc(C=O)c4)ccc23)c(Cl)cc1Cl [Example 43, 4-(2,4-Dichloro-5-methoxyanilino)-7-(5-formyl-3-thienyl)-3-quinolinecarbonitrile] | 0.0017 µM |
| N#Cc1cnc2cc(-c3csc(C=O)c3)ccc2c1Nc1ccc(Cl)cc1Cl [Example 44, 4-(2,4-Dichloroanilino)-7-(5-formyl-3-thienyl)-3-quinolinecarbonitrile] | 0.025 µM |
| COc1cc(Nc2c(C#N)cnc3ccc(-c4csc(C=O)c4)cc23)c(Cl)cc1Cl [Example 45, 4-(2,4-Dichloro-5-methoxyanilino)-6-(5-formyl-3-thienyl)-3-quinolinecarbonitrile] | 0.051 µM |
| COc1cc(Nc2c(C#N)cnc3ccc(-c4csc(CN5CCOCC5)c4)cc23)c(Cl)cc1Cl [Example 50, 4-(2.4-Dichloro-5-methoxyanilino)-6-[5-(4-morpholinylmethyl)-3-thienyl]3-quinolinecarbonitrile] | 0.111 µM |
| COc1cc(Nc2c(C#N)cnc3cc(-c4cc(CN5CCOCC5)cs4)ccc23)c(Cl)cc1Cl [Example 68, 4-(2,4-Dichloro-5-methoxyanilino)-7-[4-(4-morpholinylmethyl)-2-thienyl]-3-quinolinecarbonitrile] | 0.0015 µM |
| COc1cc(Nc2c(C#N)cnc3cc(-c4cnc(C=O)n4C)ccc23)c(Cl)cc1Cl [Example 96, 4-(2,4-Dichloro-5-methoxyanilino)-7-(2-formyl-1-methyl-1H-imidazol-5-yl)-3-quinolinecarbonitrile] | 0.24 µM |
| COc1cc(Nc2c(C#N)cnc3cc(-c4ccc(CN5CC[S+]([O-])CC5)cc4)ccc23)c(Cl)cc1Cl [Example 151, 4-[(2,4-dichloro-5-methoxyphenyl)amino]-7-{4-[(1-oxido-4-thiomorpholinyl)methyl]phenyl}-3-quinolinecarbonitrile] | 0.0047 µM |
| COc1cc(Nc2c(C#N)cnc3cc(-c4ccc(CN5CCC(C(=O)O)CC5)cn4)ccc23)c(Cl)cc1Cl [Example 177, 1-{6-[3-cyano-4-(2,4-dichloro-5-methoxyphenylamino)-quinolin-7yl]-pyridin-3-ylmethyl}-piperidine-4-carboxylic acid] | 0.00069 µM |
| COc1cc(Nc2c(C#N)cnc3cc(-c4ccc(N5CCOCC5)nc4)ccc23)c(Cl)cc1Cl [Example 185, 4-(2,4-dichloro-5-methoxyanilino)-7-[6-(4-morpholinyl)-3-pyridinyl]-3-quinolinecarbonitrile] | 0.0034 µM |
| CCN1CCN(c2ccc(-c3ccc4c(Nc5cc(OC)c(Cl)cc5Cl)c(C#N)cnc4c3)cn2)CC1 [Example 197, 4-(2,4-dichloro-5-methoxyanilino)-7-[6-(4-ethyl-1-piperazinyl)-3-pyridinyl]-3-quinolinecarbonitrile] | 0.0044 µM |
| COc1cc(Nc2c(C#N)cnc3cc(-c4ccc(N5CCN(C)CC5)nc4)ccc23)c(Cl)cc1Cl [Example 198, 4-(2,4-dichloro-5-methoxyanilino)-7-[6-(4-methyl-1-piperazinyl)-3-pyridinyl]-3-quinolinecarbonitrile] | 0.0019 µM |
| COc1cc(Nc2c(C#N)cnc3cc(-c4cnc(CN5CCOCC5)n4C)ccc23)c(Cl)cc1Cl [Example 226, 4-(2,4-dichloro-5-methoxyanilino)-7-[1-methyl-2-(4-morpholinylmethyl)-1H-imidazol-5-yl]-3-quinolinecarbonitrile] | 0.031 µM |
| COc1cc(Nc2c(C#N)cnc3cc(-c4cnc(CN5CCN(C)CC5)n4C)ccc23)c(Cl)cc1Cl [Example 227, 4-(2,4-dichloro-5-methoxyanilino)-7-{1-methyl-2-[(4-methyl-1-piperazinyl)methyl]-1H-imidazol-5-yl}-3-quinolinecarbonitrile] | 0.025 µM |
| COc1cc(Nc2c(C#N)cnc3cc(-c4cnc(CN5CCN(C)CC5)n4C)c(OC)cc23)c(Cl)cc1Cl [Example 233, 4-(2,4-dichloro-5-methoxyanilino)-6-methoxy-7-{1-methyl-2-[(4-methyl-1-piperazinyl)methyl]-1H-imidazol-5-yl}-3-quinolinecarbonitrile] | 0.028 µM |

Same assay, conditions: at 1 µM

| Compound | inhibition at 1 µM [%] |
| --- | --- |
| N#Cc1cnc2cc(C#CCO)ccc2c1Nc1ccc(Cl)cc1Cl [Example 14, 4-(2,4-Dichloroanilino)-7-(3-hydroxy-1-propynyl)-3-quinolinecarbonitrile] | 40 |

Same assay, conditions: at 10 µM

| Compound | inhibition at 10 µM [%] |
| --- | --- |
| COc1cc(Nc2c(C#N)cnc3cc(-c4cccc([N+](=O)[O-])c4)ccc23)c(Cl)cc1Cl [Example 122, 4-(2,4-Dichloro-5-methoxyanilino)-7-(3-nitrophenyl)-3-guinolinecarbonitrile] | 44 |

Test system: Rat2 fibroblasts stably transformed with a plasmid containing a CMV promotor controlled v-Src/Hu c-Src fusion gene
Test: Anchorage Independent Src-transformed Fibroblast Proliferation Assay
Details: Rattus norvegicus, Rat2, 120 h, read-out: anch-indep src-tx fib IC50

| Compound | IC50 [µM] |
| --- | --- |
| COc1cc(Nc2c(C#N)cnc3cc(-c4ccc(CN5CCN(C)CC5)o4)ccc23)c(Cl)cc1Cl [Example 41] | 0.38 |
| COc1cc(Nc2c(C#N)cnc3cc(-c4ccc(CN5CCOCC5)cn4)ccc23)c(Cl)cc1Cl [Example 57, 4-(2,4-Dichloro-5-methoxyanilino)-7-[5-(4-morpholinylmethyl)-2-pyridinyl]-3-quinolinecarbonitrile] | 0.05 |

Same assay, conditions: Rattus norvegicus, Rat2, 120 h, read-out: anch-indep src-tx fib IC50, suspension growth, MTS on Day 5

| Compound | IC50 [µM] |
| --- | --- |
| COc1cc(Nc2c(C#N)cnc3cc(-c4ccc(CCN5CCOCC5)cc4)ccc23)c(Cl)cc1Cl [Example 27, 4-(2,4-Dichloro-5-methoxyanilino)-7-{4-[2-(4-morpholinyl)ethyl]phenyl}1-3-quinolinecarbonitrile] | 1.02 |
| COc1cc(Nc2c(C#N)cnc3cc(C#CCN4CCOCC4)ccc23)c(Cl)cc1Cl [Example 146, 4-(2,4-dichloro-5-methoxyanilino)-7-[3-(4-morpholinyl)-1-propynyl]-3-quinolinecarbonitrile] | 6.5 |
| COc1cc(Nc2c(C#N)cnc3cc(C#CCCl)ccc23)c(Cl)cc1Cl [Example 152, 7-(3-chloro-1-propynyl)-4-[(2,4-dichloro-5-methoxyphenyl)amino]-3-quinolinecarbonitrile] | 4.8 |

Same assay, conditions: read-out: anch-indep src-tx fib IC50; suspension growth, MTS on Day 5

| Compound | IC50 [µM] |
| --- | --- |
| 4-(2,4-dichloro-5-methoxyanilino)-7-{4-[(4-methyl-1-piperazinyl)]phenyl}-3-quinolinecarbonitrile [Example 218] | 0.6 |
| COc1cc(Nc2c(C#N)cnc3cc(C#CCCl)ccc23)c(Cl)cc1Cl [Example 152, 7-(3-chloro-1-propynyl)-4-[(2,4-dichloro-5-methoxyphenyl)amino]-3-quinolinecarbonitrile] | 3.8 |
